# Results published in ChEMBL document CHEMBL1275492, “In vitro activity of ceftobiprole against pathogens from two phase 3 clinical trials of complicated skin and skin structure infections” (2008).
# Columns and labels:
# Format in all cases: functional
# [1] = system: Staphylococcus lugdunensis; experiment: Antibacterial activity against coagulase-negative Staphylococcus lugdunensis obtained from complicated skin and skin structure infections by agar dilution method
# Serratia marcescens = experiment: Antibacterial activity against Serratia marcescens obtained from complicated skin and skin structure infections by agar dilution method
# Salmonella = experiment: Antibacterial activity against Salmonella spp. obtained from complicated skin and skin structure infections by agar dilution method
# Citrobacter braakii = experiment: Antibacterial activity against Citrobacter braakii obtained from complicated skin and skin structure infections by agar dilution method
# Staphylococcus aureus [2] = experiment: Antibacterial activity against methicillin resistant Staphylococcus aureus obtained from complicated skin and skin structure infections by agar dilution method
# [3] = system: Staphylococcus saprophyticus; experiment: Antibacterial activity against coagulase-negative Staphylococcus saprophyticus obtained from complicated skin and skin structure infections by agar dilution method
# Enterobacter amnigenus = experiment: Antibacterial activity against Enterobacter amnigenus obtained from complicated skin and skin structure infections by agar dilution method; settings: Lelliottia amnigena
# [4] = system: Staphylococcus lugdunensis; experiment: Antibacterial activity against methicillin-resistant, oxacillin-susceptible, coagulase-negative, mecA-positive Staphylococcus lugdunensis obtained from complicated skin and skin structure infections by agar dilution method
# Staphylococcus cohnii = experiment: Antibacterial activity against coagulase-negative Staphylococcus cohnii obtained from complicated skin and skin structure infections by agar dilution method
# Morganella morganii = experiment: Antibacterial activity against Morganella morganii obtained from complicated skin and skin structure infections by agar dilution method
# Streptococcus pyogenes = experiment: Antibacterial activity against Streptococcus pyogenes obtained from complicated skin and skin structure infections by agar dilution method
# [5] = system: Streptococcus constellatus; experiment: Antibacterial activity against Streptococcus constellatus obtained from complicated skin and skin structure infections by agar dilution method
# [6] = system: Staphylococcus epidermidis; experiment: Antibacterial activity against coagulase-negative Staphylococcus epidermidis obtained from complicated skin and skin structure infections by agar dilution method
# Enterobacter cloacae = experiment: Antibacterial activity against Enterobacter cloacae obtained from complicated skin and skin structure infections by agar dilution method
# [7] = Antibacterial activity against Streptococcus sp. 'group G' obtained from complicated skin and skin structure infections by agar dilution method
# Aerococcus viridans = experiment: Antibacterial activity against Aerococcus viridans obtained from complicated skin and skin structure infections by agar dilution method
# Escherichia coli = experiment: Antibacterial activity against Escherichia coli obtained from complicated skin and skin structure infections by agar dilution method
# Klebsiella aerogenes = experiment: Antibacterial activity against Enterobacter aerogenes obtained from complicated skin and skin structure infections by agar dilution method
# Pseudomonas aeruginosa = experiment: Antibacterial activity against Pseudomonas aeruginosa obtained from complicated skin and skin structure infections by agar dilution method
# Proteus vulgaris = experiment: Antibacterial activity against Proteus vulgaris obtained from complicated skin and skin structure infections by agar dilution method
# Klebsiella pneumoniae = experiment: Antibacterial activity against Klebsiella pneumoniae obtained from complicated skin and skin structure infections by agar dilution method
# Staphylococcus = experiment: Antibacterial activity against methicillin-susceptible, coagulase-negative Staphylococcus obtained from complicated skin and skin structure infections by agar dilution method
# [8] = system: Staphylococcus intermedius; experiment: Antibacterial activity against Staphylococcus intermedius obtained from complicated skin and skin structure infections by agar dilution method
# Lactococcus lactis = experiment: Antibacterial activity against Lactococcus lactis obtained from complicated skin and skin structure infections by agar dilution method
# Proteus mirabilis = experiment: Antibacterial activity against Proteus mirabilis obtained from complicated skin and skin structure infections by agar dilution method
# [9] = Antibacterial activity against Streptococcus sp. 'group C' obtained from complicated skin and skin structure infections by agar dilution method
# Enterococcus faecalis = experiment: Antibacterial activity against Enterococcus faecalis obtained from complicated skin and skin structure infections by agar dilution method
# Staphylococcus hominis = experiment: Antibacterial activity against coagulase-negative Staphylococcus hominis obtained from complicated skin and skin structure infections by agar dilution method
# [10] = system: Staphylococcus haemolyticus; experiment: Antibacterial activity against coagulase-negative Staphylococcus haemolyticus obtained from complicated skin and skin structure infections by agar dilution method
# [11] = system: Stenotrophomonas maltophilia; experiment: Antibacterial activity against Stenotrophomonas maltophilia obtained from complicated skin and skin structure infections by agar dilution method
# Proteus penneri = experiment: Antibacterial activity against Proteus penneri obtained from complicated skin and skin structure infections by agar dilution method
# Mammaliicoccus sciuri = experiment: Antibacterial activity against coagulase-negative Staphylococcus sciuri obtained from complicated skin and skin structure infections by agar dilution method
# Staphylococcus aureus [12] = experiment: Antibacterial activity against Staphylococcus aureus obtained from complicated skin and skin structure infections by agar dilution method
# Enterococcus faecium = experiment: Antibacterial activity against Enterococcus faecium obtained from complicated skin and skin structure infections by agar dilution method
# Staphylococcus capitis = experiment: Antibacterial activity against coagulase-negative Staphylococcus capitis obtained from complicated skin and skin structure infections by agar dilution method
# Staphylococcus warneri = experiment: Antibacterial activity against coagulase-negative Staphylococcus warneri obtained from complicated skin and skin structure infections by agar dilution method
# Bacillus = experiment: Antibacterial activity against Bacillus spp. obtained from complicated skin and skin structure infections by agar dilution method
# Micrococcus = experiment: Antibacterial activity against Micrococcus spp. obtained from complicated skin and skin structure infections by agar dilution method
# Klebsiella oxytoca = experiment: Antibacterial activity against Klebsiella oxytoca obtained from complicated skin and skin structure infections by agar dilution method
# Gemella morbillorum = experiment: Antibacterial activity against Gemella morbillorum obtained from complicated skin and skin structure infections […]
# Gemella = experiment: Antibacterial activity against Gemella spp. obtained from complicated skin and skin structure infections by agar dilution method
# Streptococcus agalactiae = experiment: Antibacterial activity against Streptococcus agalactiae obtained from complicated skin and skin structure infections by agar dilution method
# Pseudomonas fluorescens = experiment: Antibacterial activity against Pseudomonas fluorescens obtained from complicated skin and skin structure infections by agar dilution method
# Providencia stuartii = experiment: Antibacterial activity against Providencia stuartii obtained from complicated skin and skin structure infections by agar dilution method
# Streptococcus mitis = experiment: Antibacterial activity against Streptococcus mitis obtained from complicated skin and skin structure infections by agar dilution method
# Staphylococcus aureus [13] = experiment: Antibacterial activity against methicillin susceptible Staphylococcus aureus obtained from complicated skin and skin structure infections by agar dilution method
# Citrobacter freundii = experiment: Antibacterial activity against Citrobacter freundii obtained from complicated skin and skin structure infections by agar dilution method
# Acinetobacter baumannii = experiment: Antibacterial activity against Acinetobacter baumannii obtained from complicated skin and skin structure infections by agar dilution method
compound,measurement,setting,value
C[C@H]1COc2c(N3CCN(C)CC3)c(F)cc3c(=O)c(C(=O)O)cn1c23.C[C@H]1COc2c(N3CCN(C)CC3)c(F)cc3c(=O)c(C(=O)O)cn1c23.O [LEVOFLOXACIN],MIC50,[1],0.12 µg/mL
same,MIC90,[1],8 µg/mL
same,MIC50,Serratia marcescens,≤ 0.06 µg/mL
same,MIC90,Serratia marcescens,8 µg/mL
same,MIC50,Salmonella,≤ 0.06 µg/mL
same,MIC90,Salmonella,8 µg/mL
same,MIC50,Citrobacter braakii,≤ 0.06 µg/mL
same,MIC90,Citrobacter braakii,8 µg/mL
same,MIC50,Staphylococcus aureus [2],4 µg/mL
same,MIC90,Staphylococcus aureus [2],8 µg/mL
same,MIC50,[3],0.12 µg/mL
same,MIC90,[3],8 µg/mL
same,MIC50,Enterobacter amnigenus,≤ 0.06 µg/mL
same,MIC90,Enterobacter amnigenus,8 µg/mL
same,MIC50,[4],0.25 µg/mL
same,MIC90,[4],> 8 µg/mL
same,MIC50,Staphylococcus cohnii,0.12 µg/mL
same,MIC90,Staphylococcus cohnii,8 µg/mL
same,MIC50,Morganella morganii,1 µg/mL
same,MIC90,Morganella morganii,64 µg/mL
same,MIC50,Streptococcus pyogenes,0.5 µg/mL
same,MIC90,Streptococcus pyogenes,0.5 µg/mL
same,MIC,[5],0.25 µg/mL
same,MIC50,[5],0.25 µg/mL
same,MIC90,[5],1 µg/mL
same,MIC50,[6],0.12 µg/mL
same,MIC90,[6],8 µg/mL
same,MIC50,Enterobacter cloacae,0.06 µg/mL
same,MIC90,Enterobacter cloacae,4 µg/mL
same,MIC50,[7],0.5 µg/mL
same,MIC90,[7],0.5 µg/mL
same,MIC50,Aerococcus viridans,0.5 µg/mL
same,MIC90,Aerococcus viridans,4 µg/mL
same,MIC50,Escherichia coli,0.03 µg/mL
same,MIC90,Escherichia coli,1 µg/mL
same,MIC50,Klebsiella aerogenes,≤ 0.06 µg/mL
same,MIC90,Klebsiella aerogenes,8 µg/mL
same,MIC50,Pseudomonas aeruginosa,4 µg/mL
same,MIC90,Pseudomonas aeruginosa,64 µg/mL
same,MIC50,Proteus vulgaris,≤ 0.06 µg/mL
same,MIC90,Proteus vulgaris,8 µg/mL
same,MIC50,Klebsiella pneumoniae,0.06 µg/mL
same,MIC90,Klebsiella pneumoniae,4 µg/mL
same,MIC50,Staphylococcus,0.12 µg/mL
same,MIC90,Staphylococcus,0.25 µg/mL
same,MIC,[8],≤ 0.03 µg/mL
same,MIC50,[8],≤ 0.03 µg/mL
same,MIC90,[8],0.12 µg/mL
same,MIC50,Lactococcus lactis,0.5 µg/mL
same,MIC90,Lactococcus lactis,4 µg/mL
same,MIC50,Proteus mirabilis,≤ 0.06 µg/mL
same,MIC90,Proteus mirabilis,> 8 µg/mL
same,MIC50,[9],0.5 µg/mL
same,MIC90,[9],0.5 µg/mL
same,MIC50,Enterococcus faecalis,1 µg/mL
same,MIC90,Enterococcus faecalis,2 µg/mL
same,MIC50,Staphylococcus hominis,0.12 µg/mL
same,MIC90,Staphylococcus hominis,8 µg/mL
same,MIC50,[10],0.12 µg/mL
same,MIC90,[10],8 µg/mL
same,MIC50,[11],4 µg/mL
same,MIC90,[11],8 µg/mL
same,MIC50,Proteus penneri,≤ 0.06 µg/mL
same,MIC90,Proteus penneri,8 µg/mL
same,MIC50,Mammaliicoccus sciuri,0.12 µg/mL
same,MIC90,Mammaliicoccus sciuri,8 µg/mL
same,MIC50,Staphylococcus aureus [12],0.12 µg/mL
same,MIC90,Staphylococcus aureus [12],4 µg/mL
same,MIC50,Enterococcus faecium,4 µg/mL
same,MIC50,Staphylococcus capitis,0.12 µg/mL
same,MIC90,Staphylococcus capitis,8 µg/mL
same,MIC50,Staphylococcus warneri,0.12 µg/mL
same,MIC90,Staphylococcus warneri,8 µg/mL
same,MIC50,Bacillus,0.5 µg/mL
same,MIC90,Bacillus,4 µg/mL
same,MIC50,Micrococcus,0.5 µg/mL
same,MIC90,Micrococcus,4 µg/mL
same,MIC50,Klebsiella oxytoca,≤ 0.06 µg/mL
same,MIC90,Klebsiella oxytoca,8 µg/mL
same,MIC50,Gemella morbillorum,0.5 µg/mL
same,MIC90,Gemella morbillorum,4 µg/mL
same,MIC50,Gemella,0.5 µg/mL
same,MIC90,Gemella,4 µg/mL
same,MIC,Streptococcus agalactiae,0.5 µg/mL
same,MIC50,Streptococcus agalactiae,0.5 µg/mL
same,MIC90,Streptococcus agalactiae,1 µg/mL
same,MIC50,Pseudomonas fluorescens,4 µg/mL
same,MIC90,Pseudomonas fluorescens,8 µg/mL
same,MIC50,Providencia stuartii,≤ 0.06 µg/mL
same,MIC90,Providencia stuartii,8 µg/mL
same,MIC,Streptococcus mitis,≤ 0.03 µg/mL
same,MIC50,Streptococcus mitis,≤ 0.03 µg/mL
same,MIC90,Streptococcus mitis,0.12 µg/mL
same,MIC50,Staphylococcus aureus [13],0.12 µg/mL
same,MIC90,Staphylococcus aureus [13],0.5 µg/mL
same,MIC50,Citrobacter freundii,≤ 0.06 µg/mL
same,MIC90,Citrobacter freundii,8 µg/mL
same,MIC50,Acinetobacter baumannii,4 µg/mL
same,MIC90,Acinetobacter baumannii,8 µg/mL
CN[C@H](CC(C)C)C(=O)N[C@H]1C(=O)N[C@@H](CC(N)=O)C(=O)N[C@H]2C(=O)N[C@H]3C(=O)N[C@H](C(=O)N[C@H](C(=O)O)c4cc(O)cc(O)c4-c4cc3ccc4O)[C@H](O)c3ccc(c(Cl)c3)Oc3cc2cc(c3O[C@@H]2O[C@H](CO)[C@@H](O)[C@H](O)[C@H]2O[C@H]2C[C@](C)(N)[C@H](O)[C@H](C)O2)Oc2ccc(cc2Cl)[C@H]1O [VANCOMYCIN],MIC50,[1],1 µg/mL
same,MIC90,[1],2 µg/mL
same,MIC50,Staphylococcus aureus [2],1 µg/mL
same,MIC90,Staphylococcus aureus [2],1 µg/mL
same,MIC50,[3],1 µg/mL
same,MIC90,[3],2 µg/mL
same,MIC50,[4],1 µg/mL
same,MIC90,[4],2 µg/mL
same,MIC50,Staphylococcus cohnii,1 µg/mL
same,MIC90,Staphylococcus cohnii,2 µg/mL
same,MIC50,Streptococcus pyogenes,0.5 µg/mL
same,MIC90,Streptococcus pyogenes,0.5 µg/mL
same,MIC50,[5],0.5 µg/mL
same,MIC90,[5],0.5 µg/mL
same,MIC50,[6],1 µg/mL
same,MIC90,[6],2 µg/mL
same,MIC,[7],0.25 µg/mL
same,MIC50,[7],0.25 µg/mL
same,MIC90,[7],0.5 µg/mL
same,MIC50,Aerococcus viridans,1 µg/mL
same,MIC90,Aerococcus viridans,1 µg/mL
same,MIC50,Staphylococcus,1 µg/mL
same,MIC90,Staphylococcus,2 µg/mL
same,MIC50,[8],1 µg/mL
same,MIC90,[8],1 µg/mL
same,MIC50,Lactococcus lactis,1 µg/mL
same,MIC90,Lactococcus lactis,1 µg/mL
same,MIC50,[9],0.5 µg/mL
same,MIC90,[9],1 µg/mL
same,MIC,Enterococcus faecalis,1 µg/mL
same,MIC50,Enterococcus faecalis,1 µg/mL
same,MIC90,Enterococcus faecalis,2 µg/mL
same,MIC50,Staphylococcus hominis,1 µg/mL
same,MIC90,Staphylococcus hominis,2 µg/mL
same,MIC50,[10],1 µg/mL
same,MIC90,[10],2 µg/mL
same,MIC50,Mammaliicoccus sciuri,1 µg/mL
same,MIC90,Mammaliicoccus sciuri,2 µg/mL
same,MIC50,Staphylococcus aureus [12],1 µg/mL
same,MIC90,Staphylococcus aureus [12],1 µg/mL
same,MIC50,Enterococcus faecium,1 µg/mL
same,MIC50,Staphylococcus capitis,1 µg/mL
same,MIC90,Staphylococcus capitis,2 µg/mL
same,MIC50,Staphylococcus warneri,1 µg/mL
same,MIC90,Staphylococcus warneri,2 µg/mL
same,MIC50,Bacillus,1 µg/mL
same,MIC90,Bacillus,1 µg/mL
same,MIC50,Micrococcus,1 µg/mL
same,MIC90,Micrococcus,1 µg/mL
same,MIC50,Gemella morbillorum,1 µg/mL
same,MIC90,Gemella morbillorum,1 µg/mL
same,MIC50,Gemella,1 µg/mL
same,MIC90,Gemella,1 µg/mL
same,MIC50,Streptococcus agalactiae,0.5 µg/mL
same,MIC90,Streptococcus agalactiae,0.5 µg/mL
same,MIC50,Streptococcus mitis,1 µg/mL
same,MIC90,Streptococcus mitis,1 µg/mL
same,MIC50,Staphylococcus aureus [13],1 µg/mL
same,MIC90,Staphylococcus aureus [13],1 µg/mL
